Results reported in paper PMC11643494, “Structure–Activity Relationship Studies in a Series of 2-Aryloxy-N-(pyrimidin-5-yl)acetamide Inhibitors of SLACK Potassium Channels” (Molecules, 2024).
Where two headings read alike, the source gives them in different places.

Columns and labels:
[1] = target: T1, WT human SLACK (Homo sapiens, UniProt Q5JUK3); assay: Whole-cell automated patch clamp (APC) in CHO-K1 cells stably expressing WT human SLACK; format: cell-based; conditions: for IC50 / WT SLACK inhibition, result in words: APC; for IC50: CHO-K1 cells stably expressing WT human SLACK, averages (n ≥ 3); for Fold less potent than hit 10 (SLACK inhibition): ratio of WT SLACK APC IC50 to hit 10; for SLACK Imax: maximum inhibition at 30 µM test compound standardized to VU0606170 (set at 100%), WT human SLACK; for WT SLACK inhibition, result in words: concentrations 0.125 to 30 µM
T1 construct: host or cells: CHO-K1
T1 sequence (Q5JUK3 1-1235 isoform Q5JUK3-3): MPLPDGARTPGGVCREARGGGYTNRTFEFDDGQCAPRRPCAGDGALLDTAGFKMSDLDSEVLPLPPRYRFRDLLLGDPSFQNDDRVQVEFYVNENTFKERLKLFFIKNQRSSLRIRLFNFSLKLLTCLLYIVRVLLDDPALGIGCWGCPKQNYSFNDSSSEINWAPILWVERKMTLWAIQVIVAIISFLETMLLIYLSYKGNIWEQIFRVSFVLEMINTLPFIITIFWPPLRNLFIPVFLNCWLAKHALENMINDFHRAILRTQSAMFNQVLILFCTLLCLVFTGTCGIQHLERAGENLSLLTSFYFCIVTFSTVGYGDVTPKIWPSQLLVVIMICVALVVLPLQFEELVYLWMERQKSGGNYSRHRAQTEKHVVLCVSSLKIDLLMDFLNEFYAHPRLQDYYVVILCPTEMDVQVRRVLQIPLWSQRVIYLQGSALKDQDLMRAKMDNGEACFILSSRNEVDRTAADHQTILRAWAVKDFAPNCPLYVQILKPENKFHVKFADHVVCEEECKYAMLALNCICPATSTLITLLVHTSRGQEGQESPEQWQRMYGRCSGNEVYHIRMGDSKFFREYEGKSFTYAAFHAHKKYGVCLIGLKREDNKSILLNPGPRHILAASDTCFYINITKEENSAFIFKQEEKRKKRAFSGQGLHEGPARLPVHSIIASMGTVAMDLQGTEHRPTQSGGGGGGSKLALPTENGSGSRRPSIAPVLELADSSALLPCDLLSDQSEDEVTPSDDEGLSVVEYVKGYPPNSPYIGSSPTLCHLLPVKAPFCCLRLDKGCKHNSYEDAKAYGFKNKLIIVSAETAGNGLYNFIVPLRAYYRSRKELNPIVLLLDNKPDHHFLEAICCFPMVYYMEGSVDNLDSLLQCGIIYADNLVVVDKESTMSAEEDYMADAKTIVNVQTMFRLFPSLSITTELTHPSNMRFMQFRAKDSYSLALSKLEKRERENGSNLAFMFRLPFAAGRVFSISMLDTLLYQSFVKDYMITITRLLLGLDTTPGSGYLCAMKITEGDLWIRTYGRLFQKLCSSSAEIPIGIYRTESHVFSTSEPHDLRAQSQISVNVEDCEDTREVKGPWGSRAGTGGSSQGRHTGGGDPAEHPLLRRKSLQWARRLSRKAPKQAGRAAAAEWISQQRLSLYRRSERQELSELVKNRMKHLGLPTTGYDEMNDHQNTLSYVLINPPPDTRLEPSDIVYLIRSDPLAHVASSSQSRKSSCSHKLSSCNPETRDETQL
Method: Using concentrations ranging from 0.125 to 30 µM in half-log steps, a concentration–response relationship was generated for each new analog using our APC assay in CHO-K1 cells stably expressing WT SLACK. A minimum of three cells, i.e., replicates, were collected per concentration for each analog.
Automated patch clamp recording was performed with a SyncroPatch 768 PE system (Nanion, Munich, Germany) as previously described. Whole-cell recordings were performed at room temperature. Cells were harvested by first washing with PBS without Mg^2+ or Ca^2+ (Gibco, Billings, MT, USA) to remove cell culture medium, followed by dissociation with TryPLE (Gibco, Billings, MT, USA). Cells were then resuspended and diluted to 200,000 cells/mL in external solution. External solution contained 105 mM NaCl, 4 mM KCl, 1 mM MgCl2, 5 mM CaCl2, 10 mM HEPES, 40 mM N-Methyl-D-glucamine chloride, titrated to pH 7.4 with NaOH and osmolarity of 300 mOsm/kg; internal solution contained 70 mM NaCl, 70 mM KF, 10 mM KCl, 5 mM EGTA, 5mM HEPES, titrated to a pH 7.2 with KOH and osmolarity of 295 mOsm/kg.
The APC protocol was set as following: Cells were held at […] −80 mV for 100 ms, then a ramp protocol was performed from −100 mV to 80 mV at 0.4 mV/ms, hold the cell at −80 mV for another 100 ms, then steps were performed at −20 mV, 0 mV, +20 mV, +40 mV, and +60 mV for 100 ms of each step. Whole-cell currents were measured at 0 mV and normalized to current after external buffer addition.

[2] = test system: WT SLACK; design: method as in PMID 32408169; conditions: whole-cell patch clamp electrophysiology; read-out: IC50 versus WT SLACK; cited from earlier work
[3] = test system: hERG (Kv11.1) channel; design: method as in PMID 32408169; conditions: 10 µM; cited from earlier work
[4] = test system: SLACK mutant F364L; design: method as in PMID 33859800; conditions: APC; read-out: IC50 versus SLACK mutant F364L; cited from earlier work
[5] = test system: Kcnt1^L/L mice; design: method as in PMID 33859800; conditions: cited from earlier work
[6] = test system: human WT SLACK; design: method as in PMID 33859800; conditions: APC; read-out: IC50 versus human WT SLACK; cited from earlier work
[7] = design: method as in PMID 33859800; conditions: mice; cited from earlier work
[8] = test system: SLACK mutant G288S; design: method as in PMID 33859800; conditions: APC; read-out: IC50 versus SLACK mutant G288S; cited from earlier work
[9] = test system: SLACK; design: method as in earlier work; conditions: patent application, no specific values reported; cited from earlier work
[10] = test system: co-cultured cortical neurons and glial cells; design: method as in PMID 33143429; conditions: cited from earlier work
[11] = test system: WT SLACK; conditions: cited from earlier work
[12] = test system: hERG; conditions: Tl+-flux, cited from earlier work
[13] = test system: A934T SLACK; conditions: cited from earlier work
[14] = test system: G288S SLACK; design: method as in PMID 38893312; conditions: whole-cell APC; read-out: IC50 versus G288S SLACK; cited from earlier work
[15] = test system: WT SLICK; design: method as in PMID 38782404; conditions: read-out: IC50 versus WT SLICK; cited from earlier work
[16] = test system: hERG; design: method as in PMID 38782404; conditions: cited from earlier work
[17] = test system: WT SLACK; design: method as in PMID 38782404; conditions: patch clamp; read-out: IC50 versus WT SLACK; cited from earlier work
[18] = design: method as in PMID 38782404; conditions: cited from earlier work
[19] = test system: KV7.2; design: method as in PMID 38782404; conditions: cited from earlier work
[20] = test system: A934T SLACK; design: method as in PMID 38782404; conditions: read-out: IC50 versus A934T SLACK; cited from earlier work
[21] = design: method as in PMID 38782404; conditions: human liver microsomes; cited from earlier work
[22] = test system: G288S SLACK; design: method as in PMID 38782404; conditions: read-out: IC50 versus G288S SLACK; cited from earlier work
[23] = whole-cell patch clamp electrophysiology, read-out: IC50 versus WT SLACK

For `CC(C)(Nc1ccc(Cl)cc1)C(=O)Nc1cnc(Oc2ccccc2F)nc1` [Analog 69], the IC50 [1] was 2700 nM and the “Fold less potent than hit 10 (SLACK inhibition)” value [1] was about 2 fold.
For `CC(C)(Cc1ccc(Cl)cc1)C(=O)Nc1cnc(Oc2ccccc2F)nc1` [Analog 73], the IC50 [1] was 7200 nM and the “Fold less potent than hit 10 (SLACK inhibition)” value [1] was 5 fold.
In the case of `O=C(CCc1ccc(Cl)cc1)Nc1cnc(Oc2ccccc2F)nc1` [Analog 74], the IC50 [1] is reported as 5100 nM and the “SLACK Imax” value [1] is reported as 102%.
For `O=C(COc1ccc(Cl)cc1)Nc1cnc(Oc2ccccc2F)nc1` [Analog 75], the “WT SLACK inhibition, result in words” value [1] was “inactive”.
`O=C(Nc1cnc(Oc2ccccc2F)nc1)C(F)(F)Oc1ccc(Cl)cc1` [Analog 79] gave an IC50 [1] of 2100 nM.
For `CNCc1ccc(Cl)cc1` [Analog 80], the “WT SLACK inhibition, result in words” value [1] was “only a weak inhibitor”.
For `CN(Cc1ccc(Cl)cc1)C(=O)Nc1cnc(Oc2ccccc2F)nc1` [Analog 82], the IC50 [1] was over 10000 nM and the “SLACK Imax” value [1] was 79%.
In the case of `CC(C)(Oc1ccc(Cl)cc1)C(=O)Nc1ccc(Oc2ccccc2F)nc1` [Analog 86], the IC50 [1] is reported as 3100 nM and the “Fold less potent than hit 10 (SLACK inhibition)” value [1] is reported as about 2 fold.
In the case of `CC(C)(Oc1ccc(Cl)cc1)C(=O)Nc1cnc(Oc2ccccc2F)c(C#N)c1` [Analog 87], the IC50 [1] is reported as 1800 nM.
With `CC(C)(Oc1ccc(Cl)cc1)C(=O)Nc1ccc(Oc2ccccc2F)cc1` [Analog 88] the IC50 [1] was 4900 nM, the “Fold less active than pyridine 86” value ([1]; WT SLACK APC IC50) was 1.6 fold and the “SLACK Imax” value [1] was 92%. For the same compound, the “Fold less potent than hit 10 (SLACK inhibition)” value [1] was 3.5 fold.
In the case of `CC(C)(Oc1ccc(Cl)cc1)C(=O)Nc1ccc(Oc2ccccc2F)cn1` [Analog 89], the IC50 [1] is reported as over 10000 nM, the “WT SLACK inhibition, result in words” value [1] is reported as “only weak inhibitors” and the “SLACK Imax” value [1] is reported as 52%.
In the case of `CC(C)(Oc1ccc(Cl)cc1)C(=O)Nc1cnc(Oc2ccccc2F)cn1` [Analog 90], the IC50 [1] is reported as over 10000 nM, the “WT SLACK inhibition, result in words” value [1] is reported as “only weak inhibitors” and the “SLACK Imax” value [1] is reported as 50%.
In the case of `Cc1cccc(CC(=O)Nc2cnn(-c3cccc(C(=O)NCc4ccccc4-n4cncn4)c3)c2)c1` [Compound 1], the IC50 [2] is listed as 3200 nM and the “hERG (Kv11.1) channel blockade” value [3] is listed as “almost completely blocked the channel”.
For `O=C(Nc1cccc(C(F)(F)F)c1)c1ccc2nc(N3C(=O)c4ccccc4C3=O)sc2c1` [Compound 2], the IC50 [2] is listed as 3000 nM and the “hERG (Kv11.1) channel blockade” value [3] is listed as 10–20%.
For `O=C(Nc1cccc(C(F)(F)F)c1)c1ccc(CSc2nnnn2-c2ccccc2)cc1` [Compound 3], the IC50 [2] is given as 1600 nM and the “hERG (Kv11.1) channel blockade” value [3] is given as 45%.
In the case of `C[C@H](NC(=O)c1cc(C(F)(F)F)nn1C)c1nc(-c2ccnc(C(F)(F)F)c2)no1` [Compound 4], the IC50 [4] is given as 1800 nM, the anticonvulsant effects [5] is given as “anticonvulsant effects were observed” and the IC50 [6] is given as […]. The bioavailability [7] was “complete bioavailability”, the clearance [7] was 2.0 mL/min/kg and the IC50 [8] was 220 nM.
In the case of `O=C(N[C@@H]1CCc2cc(Cl)ccc21)c1ccc(S(=O)(=O)N2CCCC2)s1` [Compound 5], the IC50 [9] is listed as under 1000 nM and the “SLACK IC50” value [9] is listed as “less than one micromolar”.
For `COc1ccc(Cl)cc1NC(=O)CN1CCN(S(=O)(=O)N2CCC(C)CC2)CC1` [Compound 6], the “frequency of calcium (Ca2+) oscillations, result in words” value [10] is given as “inhibiting the frequency of calcium (Ca^2+) oscillations”, the IC50 [11, 23] is given as 1700 nM and the IC50 [12] is given as over 10000 nM.
In the case of `Cc1ccc2cccc(S(=O)(=O)N3CC(c4nc(-c5ccc(F)cc5)no4)C3)c2n1` [Compound 7], the IC50 ([11]; whole-cell APC, read-out: APC IC50 versus WT SLACK) is listed as 320 nM, the “hERG activity, result in words” value ([12]; 10 µM) is listed as “inactive” and the “A934T SLACK inhibition, result in words” value [13] is listed as “potent inhibitor”.
In the case of `CCCCN(Cc1ccc(F)cc1)c1nc2c(c(=O)n(Cc3cccc(OC)c3)c(=O)n2C)n1C` [Compound 8], the IC50 [14] is given as 710 nM, the IC50 [11, 23] is given as 700 nM and the IC50 ([13]; whole-cell APC, read-out: IC50 versus A934T SLACK) is given as 590 nM.
For `O=S(=O)(Nc1ccc2c(c1)CCN2Cc1ccc(C(F)(F)F)cc1C(F)(F)F)C1CCCCC1` [Compound 9], the IC50 [15] is listed as 1300 nM, the “activity on hERG channels, result in words” value [16] is listed as “no activity” and the IC50 [17] is listed as 200 nM. For the same compound, the “plasma protein binding, result in words” value [18] was “highly bound to plasma proteins”, the “activity on KV7.2 channels, result in words” value [19] was “no activity” and the IC50 [20] was 280 nM. The “metabolic stability (clearance), result in words” value [21] was “low clearance compound” and the IC50 [22] was 300 nM.
